# Measurements as given in PubChem BioAssay AID686974 (The Scripps Research Institute Molecular Screening Center, 2013).
# Calls of active or inactive are those of the source.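 Rule for the calls: active = client protein degradation above 50% for Her2 or AKT on Western blot; inactive = client protein degradation below 10%.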
# What was measured:
# [1] = target: RAC-alpha serine/threonine-protein kinase (Homo sapiens) (UniProt P31749); assay: Her2 and AKT client protein degradation, late-stage follow-up, mechanism study, cell-based, Western blot, MCF7 (AID 686974); conditions: 24 h, AKT, active compounds read high
# Sequence of RAC-alpha serine/threonine-protein kinase (Homo sapiens) (P31749 whole entry, looked up): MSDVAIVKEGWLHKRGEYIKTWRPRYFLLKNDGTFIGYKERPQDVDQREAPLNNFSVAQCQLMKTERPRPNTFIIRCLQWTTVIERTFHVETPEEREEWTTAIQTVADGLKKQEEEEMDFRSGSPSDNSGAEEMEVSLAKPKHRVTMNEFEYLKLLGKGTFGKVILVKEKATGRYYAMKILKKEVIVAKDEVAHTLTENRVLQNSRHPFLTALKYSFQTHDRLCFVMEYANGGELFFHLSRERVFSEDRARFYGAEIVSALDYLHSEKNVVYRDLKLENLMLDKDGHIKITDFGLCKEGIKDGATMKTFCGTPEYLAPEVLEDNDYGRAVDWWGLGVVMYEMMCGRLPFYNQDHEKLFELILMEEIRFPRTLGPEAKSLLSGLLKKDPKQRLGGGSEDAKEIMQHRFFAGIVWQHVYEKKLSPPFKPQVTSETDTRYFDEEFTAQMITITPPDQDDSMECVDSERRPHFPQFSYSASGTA
# [2] = target: Receptor tyrosine-protein kinase erbB-2 (Homo sapiens) (UniProt P04626); assay: as above; conditions: 24 h, active compounds read high
# Sequence of Receptor tyrosine-protein kinase erbB-2 (Homo sapiens) (P04626 whole entry, looked up): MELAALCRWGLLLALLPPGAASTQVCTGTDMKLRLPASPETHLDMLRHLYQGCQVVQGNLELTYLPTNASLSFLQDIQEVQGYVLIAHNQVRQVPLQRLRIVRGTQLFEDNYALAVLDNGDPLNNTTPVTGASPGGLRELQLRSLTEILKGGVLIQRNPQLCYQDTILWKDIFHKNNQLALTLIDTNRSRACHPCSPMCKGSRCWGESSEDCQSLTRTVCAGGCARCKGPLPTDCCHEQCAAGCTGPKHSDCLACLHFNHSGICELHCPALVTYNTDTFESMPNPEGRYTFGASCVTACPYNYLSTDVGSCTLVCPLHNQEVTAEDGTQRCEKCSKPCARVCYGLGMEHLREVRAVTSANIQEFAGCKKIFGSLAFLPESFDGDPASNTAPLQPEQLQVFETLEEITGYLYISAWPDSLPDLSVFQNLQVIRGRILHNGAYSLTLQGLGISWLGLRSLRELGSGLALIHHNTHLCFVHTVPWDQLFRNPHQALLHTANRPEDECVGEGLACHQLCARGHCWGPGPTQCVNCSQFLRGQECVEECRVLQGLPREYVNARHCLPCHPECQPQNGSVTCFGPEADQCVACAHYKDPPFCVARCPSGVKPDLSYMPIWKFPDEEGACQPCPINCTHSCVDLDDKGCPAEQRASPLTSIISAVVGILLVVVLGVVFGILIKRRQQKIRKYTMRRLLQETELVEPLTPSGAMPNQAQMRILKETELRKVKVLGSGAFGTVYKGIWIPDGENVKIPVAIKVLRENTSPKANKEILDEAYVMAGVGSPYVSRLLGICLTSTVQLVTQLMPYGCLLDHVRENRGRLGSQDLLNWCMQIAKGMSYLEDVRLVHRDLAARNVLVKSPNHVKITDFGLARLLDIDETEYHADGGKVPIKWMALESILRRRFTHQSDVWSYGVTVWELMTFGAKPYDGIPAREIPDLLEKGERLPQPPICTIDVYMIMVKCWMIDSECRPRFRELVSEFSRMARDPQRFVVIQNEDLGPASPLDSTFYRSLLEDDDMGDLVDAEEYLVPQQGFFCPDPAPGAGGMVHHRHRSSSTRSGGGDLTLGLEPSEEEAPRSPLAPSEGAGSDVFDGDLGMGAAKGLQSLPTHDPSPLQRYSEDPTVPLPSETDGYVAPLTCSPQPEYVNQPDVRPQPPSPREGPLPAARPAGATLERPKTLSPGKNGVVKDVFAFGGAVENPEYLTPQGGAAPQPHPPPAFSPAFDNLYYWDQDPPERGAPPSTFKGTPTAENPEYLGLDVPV
compound,measurement,setting,value
COc1ccc(NC(=O)c2coc(=O)c(Br)c2)cc1,client protein degradation,"[1]; high dose (five times the growth IC50) 12 µM, low dose (half the growth IC50) 1.2 µM",> 50%
same,client protein degradation,"[2]; Her2, high dose (five times the growth IC50) 12 µM, low dose (half the growth IC50) 1.2 µM",> 50%
CC(NC(=O)c1coc(=O)c(Br)c1)C1C2CCC3CC(C2)CC31 (configuration not stated),client protein degradation,"[1]; high dose (five times the growth IC50) 9 µM, low dose (half the growth IC50) 0.9 µM",< 10% (inactive)
same,client protein degradation,"[2]; Her2, high dose (five times the growth IC50) 9 µM, low dose (half the growth IC50) 0.9 µM",> 50%
CCCCOc1cccc(NC(=O)c2coc(=O)c(Br)c2)c1,client protein degradation,"[1]; high dose (five times the growth IC50) 114 µM, low dose (half the growth IC50) 11.4 µM",< 10% (inactive)
same,client protein degradation,"[2]; Her2, high dose (five times the growth IC50) 114 µM, low dose (half the growth IC50) 11.4 µM",> 50%
O=C(NCc1ccco1)c1coc(=O)c(Br)c1,client protein degradation,"[1]; high dose (five times the growth IC50) 24 µM, low dose (half the growth IC50) 2.4 µM",> 50%
same,client protein degradation,"[2]; Her2, high dose (five times the growth IC50) 24 µM, low dose (half the growth IC50) 2.4 µM",> 50%
Cc1cccc(NC(=O)c2coc(=O)c(Br)c2)n1,client protein degradation,"[1]; high dose (five times the growth IC50) 136.5 µM, low dose (half the growth IC50) 13.7 µM",< 10% (inactive)
same,client protein degradation,"[2]; Her2, high dose (five times the growth IC50) 136.5 µM, low dose (half the growth IC50) 13.7 µM",> 50%
O=C(Nc1ccc(F)cc1)c1coc(=O)c(Br)c1,client protein degradation,"[1]; high dose (five times the growth IC50) 17 µM, low dose (half the growth IC50) 1.7 µM",> 50%
same,client protein degradation,"[2]; Her2, high dose (five times the growth IC50) 17 µM, low dose (half the growth IC50) 1.7 µM",> 50%
COc1ccc(NC(=O)c2ccc(NC(=O)c3coc(=O)c(Br)c3)cc2)cc1,client protein degradation,"[1]; high dose (five times the growth IC50) 60.5 µM, low dose (half the growth IC50) 6.1 µM",< 10% (inactive)
same,client protein degradation,"[2]; Her2, high dose (five times the growth IC50) 60.5 µM, low dose (half the growth IC50) 6.1 µM",< 10% (inactive)
O=C(NCc1cccnc1)c1coc(=O)c(Br)c1,client protein degradation,"[1]; high dose (five times the growth IC50) 17.5 µM, low dose (half the growth IC50) 1.8 µM",< 10% (inactive)
same,client protein degradation,"[2]; Her2, high dose (five times the growth IC50) 17.5 µM, low dose (half the growth IC50) 1.8 µM",> 50%
Cc1cc(NC(=O)c2coc(=O)c(Br)c2)ccc1C(C)C,client protein degradation,"[1]; high dose (five times the growth IC50) 44.5 µM, low dose (half the growth IC50) 4.5 µM",< 10% (inactive)
same,client protein degradation,"[2]; Her2, high dose (five times the growth IC50) 44.5 µM, low dose (half the growth IC50) 4.5 µM",< 10% (inactive)
CCCCCCCCOc1ccc(NC(=O)c2coc(=O)c(Br)c2)cc1,client protein degradation,"[1]; high dose (five times the growth IC50) 64.5 µM, low dose (half the growth IC50) 6.5 µM",< 10% (inactive)
same,client protein degradation,"[2]; Her2, high dose (five times the growth IC50) 64.5 µM, low dose (half the growth IC50) 6.5 µM",> 50%
CCOc1ccc(-c2nc(CN3CCCCC3CCn3cccn3)c(C)o2)cc1 (configuration not stated),client protein degradation,"[1]; high dose (five times the growth IC50) 111 µM, low dose (half the growth IC50) 11.1 µM",< 10% (inactive)
same,client protein degradation,"[2]; Her2, high dose (five times the growth IC50) 111 µM, low dose (half the growth IC50) 11.1 µM",< 10% (inactive)
O=C(Nc1ccccc1I)c1coc(=O)c(Br)c1,client protein degradation,"[1]; high dose (five times the growth IC50) 147 µM, low dose (half the growth IC50) 14.7 µM",> 50%
same,client protein degradation,"[2]; Her2, high dose (five times the growth IC50) 147 µM, low dose (half the growth IC50) 14.7 µM",> 50%
O=C(NCCc1ccc(F)cc1)c1coc(=O)c(Br)c1,client protein degradation,"[1]; high dose (five times the growth IC50) 10.5 µM, low dose (half the growth IC50) 1.1 µM",< 10% (inactive)
same,client protein degradation,"[2]; Her2, high dose (five times the growth IC50) 10.5 µM, low dose (half the growth IC50) 1.1 µM",> 50%
CC(=O)c1ccc(NC(=O)c2coc(=O)c(Br)c2)cc1,client protein degradation,"[1]; high dose (five times the growth IC50) 53.5 µM, low dose (half the growth IC50) 5.4 µM",< 10% (inactive)
same,client protein degradation,"[2]; Her2, high dose (five times the growth IC50) 53.5 µM, low dose (half the growth IC50) 5.4 µM",> 50%
COC(=O)c1ccc2nc(NC(=O)C3CC3)sc2c1,client protein degradation,"[1]; high dose (five times the growth IC50) 246 µM, low dose (half the growth IC50) 24.6 µM",< 10% (inactive)
same,client protein degradation,"[2]; Her2, high dose (five times the growth IC50) 246 µM, low dose (half the growth IC50) 24.6 µM",< 10% (inactive)
CC(C)CNC(=O)c1coc(=O)c(Br)c1,client protein degradation,"[1]; high dose (five times the growth IC50) 37.5 µM, low dose (half the growth IC50) 3.8 µM",< 10% (inactive)
same,client protein degradation,"[2]; Her2, high dose (five times the growth IC50) 37.5 µM, low dose (half the growth IC50) 3.8 µM",> 50%
